Laboratory results as given in the CombiSolv-Exp solvation set (Vermeire and Green 2021).

Test: solvent given as SMILES

C=CC=C
Settings | solvation free energy, 298 K [kcal/mol]
in C1CCC2CCCCC2C1 | -2.17
in C1COCCO1 | -2.03
in C=Cc1ccccc1 | -2.36
in CC1COC(=O)O1 | -1.97
in CC#N | -2.15
in CC(=O)N(C)C | -2.56
in CC(C)(C)O | -2.07
in CC(C)=O | -2.74
in CC(C)CCO | -2.09
in CC(C)CO | -2.06
in CC(C)O | -2.09
in CCC(C)(C)O | -2.16
in CCC(C)CO | -2.06
in CCC(C)O | -2.07
in CCC(O)CC | -2.09
in CCCC(C)O | -2.07
in CCCCCCC | -2.67
in CCCCCCCCCCCCCCCC | -2.1
in CCCCCO | -2.11
in CCCCO | -2.11
in CCCO | -2.16
in CCOC(C)=O | -2.84
in CCOCC | -2.72
in CN1CCCC1=O | -2.36
in CN(C)C=O | -2.29
in CN(C)P(=O)(N(C)C)N(C)C | -2.46
in CO | -2.14
in COC(C)=O | -2.26
in COCCOCCOCCOC | -2.05
in CS(C)=O | -1.8
in Cc1ccc(C)cc1 | -2.45
in Cc1cccc(C)c1 | -2.48
in Cc1ccccc1C | -2.46
in ClCCl | -2.83
in Nc1ccccc1 | -2.06
in O | 0.6
in OCCCOCCCO | -1.73
in OCCO | -1.35
in OCc1ccccc1 | -1.95

NCCc1ccc(O)cc1
Settings | solvation free energy, 298 K [kcal/mol]
in C=CCCCCCCC=C | -10
in O | -11.8

CC(=O)OCCC(C)CCC=C(C)C (centres undefined)
Settings | solvation free energy, 298 K [kcal/mol]
in O | -2.99

CCOP(=S)(OCC)Oc1nc(Cl)c(Cl)cc1Cl
Settings | solvation free energy, 298 K [kcal/mol]
in CCCCCCCCC=CCCCCCCCC(=O)OCC(COC(=O)CCCCCCCC=CCCCCCCCC)OC(=O)CCCCCCCC=CCCCCCCCC | -14.4

[HH]
Settings | solvation free energy, 298 K [kcal/mol]
in Brc1ccccc1 | 1.77
in C1CCNC1 | 1.62
in C1CCNCC1 | 1.63
in C1CCOC1 | 1.46
in C1COCCO1 | 1.76
in C=CCCCCCC | 1.36
in C=CCCCCCCC=C | 1.6
in CC1COC(=O)O1 | 2.04
in CC#N | 1.45
in CC(=O)OCC(C)C | 1.49
in CC(C)(C)O | 1.49
in CC(C)=O | 1.38
in CC(C)CC(C)(C)C | 1.28
in CC(C)CCO | 1.76
in CC(C)CO | 1.53
in CC(C)N | 1.3
in CC(C)O | 1.45
in CCC(C)=O | 1.45
in CCC(C)O | 1.56
in CCCCC(CC)CO | 1.64
in CCCCCC | 1.24
in CCCCCCC | 1.29
in CCCCCCCC | 1.35
in CCCCCCCCCC | 1.49
in CCCCCCCCCCCCO | 1.9
in CCCCCCCCCCO | 1.83
in CCCCCCCCCO | 1.8
in CCCCCCO | 1.61
in CCCCCO | 1.64
in CCCCCOC(C)=O | 1.91
in CCCCN(CCCC)CCCC | 1.53
in CCCCNCCCC | 1.48
in CCCCO | 1.56
in CCCCOC(C)=O | 1.5
in CCCCOCCCC | 1.42
in CCCCOCCO | 1.67
in CCCN | 1.35
in CCCO | 1.52
in CCN | 1.24
in CCN(CC)CC | 1.33
in CCO | 1.47
in CCOC(C)=O | 1.46
in CCOCC | 1.15
in CCOCCO | 1.7
in CN1CCCC1 | 1.38
in CN1CCCC1=O | 1.98
in CN(C)C=O | 1.84
in CN(C)CCCN | 1.63
in CO | 1.35
in COC(C)=O | 1.42
in COCCO | 1.84
in Cc1cccc(C)c1 | 1.49
in Cc1ccccc1 | 1.62
in ClC(Cl)(Cl)Cl | 1.51
in ClC(Cl)Cl | 1.61
in ClCCCl | 1.72
in ClCCl | 1.57
in Clc1ccccc1 | 1.65
in NCCCN | 2.05
in NCCN | 2.15
in O=C1CCCC1 | 1.72
in O=C1CCCCC1 | 1.75
in OCCO | 2.38
in c1ccccc1 | 1.58

CC(C)(C)CCO
Settings | solvation free energy, 298 K [kcal/mol]
in CCCCCCCC | -4.85
in CCCCCCCCCC | -4.72

Cc1[nH]c(=O)n(C(C)(C)C)c(=O)c1Cl
Settings | solvation free energy, 298 K [kcal/mol]
in O | -11.1

CC1CCCC(O)C1 (centres undefined)
Settings | solvation free energy, 298 K [kcal/mol]
in O | -5.21

O=Cc1cccc(O)c1
Settings | solvation free energy, 298 K [kcal/mol]
in O | -9.52

C=C1CCC2C(C)CCC3C(C12)C3(C)C (centres undefined)
Settings | solvation free energy, 298 K [kcal/mol]
in O | 0.42

C=C(C)CCCC
Settings | solvation free energy, 298 K [kcal/mol]
in C=CCCCCCCCCCCCCCC | -4.04
in O | 1.66

O=[O+][O-]
Settings | solvation free energy, 298 K [kcal/mol]
in COC(C)=O | -0.29
in O | 0.82

CN1C2CCC1CC(OC(=O)C(O)c1ccccc1)C2 (centres undefined)
Settings | solvation free energy, 298 K [kcal/mol]
in O | -13.8

Clc1cc(-c2ccccc2)c(Cl)c(Cl)c1Cl
Settings | solvation free energy, 298 K [kcal/mol]
in CCCCCCCCO | -11.7
in O | -3.29

FC(C(F)(F)F)C(F)(F)F
Settings | solvation free energy, 298 K [kcal/mol]
in CCCCCCCCO | -1.12
in CN1CCCC1=O | -0.6
in O | 2.01

C=C1CCC2CC3C(C)CCC13C2(C)C (centres undefined)
Settings | solvation free energy, 298 K [kcal/mol]
in O | 0.83
